Source: patent publication US20030109529A1, “Use of s-triazines for treating Apicomplexan parasitic infections” (priority 1999, published 2003)

Experiments:
[1] = tested on: wild type Plasmodium falciparum; assay: In vitro red blood cell culture infected with wild type Plasmodium falciparum, percent RBCs infected; assay type: cell-based
Experimental: The in vitro method used to test the anti-malarial effectiveness of various s-triazines was adapted from Trager, 1994, Methods in Cell Biology Vol 45:7-26.
(§1) Briefly, a red blood cell suspension at a malarial (wild type Plasmodium falciparum) infection rate of approximately 1% was added to each well of a 96 well micro titer plate. The test compound was added to the cultures at final concentrations of 2.0, 0.2 or 0.02 μM. and incubated in an environment of 5% CO2, 5% O2 and 90% N2 at 37° C. Every 24 hrs the dish was removed, 100 μl of spent medium removed and 100 μl of fresh, compound containing-medium was added back to each well. This procedure was repeated daily.
(§2) At 48 hrs and again at 96 hrs, blood smears were made from each well and 500 Red Blood Cells (RBCs) were counted and inspected for malarial infection. The percent infection rate was then determined for each experimental condition tested.
Malaria parasite (P. falciparum) was grown in culture as described previously. At 48 hours and 96 hours of treatment, red blood cells were taken from culture and the percent red blood cells infected with the parasite was determined by microscopic examination.
The data in Table 2 represent percent red blood cell (RBC) infection rate at 48 hrs of treatment with the antimalarial test compound. Control cultures were 35% RBC infected.

[2] = tested on: antifolate-resistant P. falciparum; assay: In vitro RBC culture, antifolate-resistant P. falciparum; assay type: cell-based, Plasmodium falciparum; conditions: Example 4, 48 hrs or 96 hrs after treatment
Experimental: as §1, §2
The procedure set forth in Example 1 is utilized for testing the effectiveness of triazine and atrazine against antifolate-resistant P. falciparum.

P. falciparum = assay: Isobologram analysis of chloroquine and atrazine in vitro against P. falciparum; assay type: cell-based, Plasmodium falciparum; conditions: each drug alone at its ID50, or combinations of the stated fractions of each ID50
Experimental: Drugs can interact in additive, antagonistic or synergistic manner. See Berenbaum, J. Infect. Dis., 137:122-130, 1978. The isobologram assay permits determination of the type of interaction that occurs between drugs of interest. The ID50, or […], for both drugs was calculated.
Next, the drugs were tested in vitro at the ID50 for each drug alone and various combinations of drugs as described below:
These combinations of drugs were tested in vitro against P. falciparum and the data analyzed.

CCNc1nc(Cl)nc(NC(C)C)n1 [atrazine, 2-chloro-4-ethylamino-6-isopropylamino-s-triazine]
Red Blood Cell Infection Rate ([1]; 48 hrs of treatment, 0.02 μM, control 35%): 3%
Red Blood Cell Infection Rate ([1]; 48 hrs of treatment, 0.2 μM, control 35%): 0%
Red Blood Cell Infection Rate ([1]; 48 hrs of treatment, 2.0 μM, control 35%): 0%
effectiveness compared with chloroquine (text to Table 2) ([1]; 48 hrs of treatment, 2.0-0.02 μM): substantially similar in effectiveness as chloroquine
percentage of RBCs infected with P. falciparum (FIGS. 1-4) ([1]; low concentrations, 48 hrs or 96 hrs after treatment): relatively low percentage of the RBCs being infected
Red Blood Cell Infection Rate ([1]; wild type, 96 hrs of treatment, 0.02 μM, control 18): 3%
percentage of RBCs infected with antifolate-resistant P. falciparum [2]: relatively low percentage of the RBCs being infected
Percent Growth Inhibition (P. falciparum): 58%
